Data from patent US20110173718A1, “HERBICIDE TOLERANT PLANTS” (SYNGENTA CROP PROTECTION, INC., priority 2008, published 2011).
Values joined by “and” are separate entries in the source; they are usually repeats but may differ in a detail not shown here. Equal entries are not always repeated.

Key:
Format in all cases: in vivo
[1] = system: Chlamydomonas HST T0 tobacco lines; assay: Glasshouse spray test, Chlamydomonas HST transgenic tobacco; conditions: 100 g, individual T0 lines
Source text: In just the same way the Chlamydomonas HST gene sequence (AM285678) is codon-optimised for tobacco and cloned behind the double Cauliflower mosaic virus 35S promoter and Tobacco mosaic virus enhancer sequences and in front of a nos gene terminator, cloned into a binary vector and transformed into tobacco to produce a population of T0 plants.

[2] = system: Arabidopsis HST transgenic tobacco plants; assay: Glasshouse spray test, Arabidopsis HST transgenic tobacco; conditions: D2 line (Arabidopsis HST, segregating T1), individual plants
[3] = system: weeds; assay: Glasshouse weed control by HST/HPPD (mesotrione) mixtures, pre-emergence; conditions: for colby: Colby synergy score; for % Damage at 14 DAA, 1 g ai ha^−1 mesotrione / % Damage at 14 DAA, no-mesotrione: N = 3
[4] = ALOMY, 16 g/ha + mesotrione 1 g ai/ha
[5] = ALOMY, 31 g/ha + mesotrione 1 g ai/ha
[6] = ALOMY, 63 g/ha + mesotrione 1 g ai/ha
[7] = ALOMY, 125 g/ha + mesotrione 1 g ai/ha
[8] = ALOMY, 250 g/ha + mesotrione 1 g ai/ha
[9] = ALOMY, 500 g/ha + mesotrione 1 g ai/ha
[10] = AMARE, 16 g/ha + mesotrione 1 g ai/ha
[11] = AMARE, 31 g/ha + mesotrione 1 g ai/ha
[12] = AMARE, 63 g/ha + mesotrione 1 g ai/ha
[13] = AMARE, 125 g/ha + mesotrione 1 g ai/ha
[14] = AMARE, 250 g/ha + mesotrione 1 g ai/ha
[15] = AMARE, 500 g/ha + mesotrione 1 g ai/ha
[16] = ECHCG, 16 g/ha + mesotrione 1 g ai/ha
[17] = ECHCG, 31 g/ha + mesotrione 1 g ai/ha
[18] = ECHCG, 63 g/ha + mesotrione 1 g ai/ha
[19] = ECHCG, 125 g/ha + mesotrione 1 g ai/ha
[20] = ECHCG, 250 g/ha + mesotrione 1 g ai/ha
[21] = ECHCG, 500 g/ha + mesotrione 1 g ai/ha
[22] = IPOHE, 16 g/ha + mesotrione 1 g ai/ha
[23] = IPOHE, 31 g/ha + mesotrione 1 g ai/ha
[24] = IPOHE, 63 g/ha + mesotrione 1 g ai/ha
[25] = IPOHE, 125 g/ha + mesotrione 1 g ai/ha
[26] = IPOHE, 250 g/ha + mesotrione 1 g ai/ha
[27] = IPOHE, 500 g/ha + mesotrione 1 g ai/ha
[28] = SETFA, 16 g/ha + mesotrione 1 g ai/ha
[29] = SETFA, 31 g/ha + mesotrione 1 g ai/ha
[30] = SETFA, 63 g/ha + mesotrione 1 g ai/ha
[31] = SETFA, 125 g/ha + mesotrione 1 g ai/ha
[32] = SETFA, 250 g/ha + mesotrione 1 g ai/ha
[33] = SETFA, 500 g/ha + mesotrione 1 g ai/ha
[34] = SOLNI, 16 g/ha + mesotrione 1 g ai/ha
[35] = SOLNI, 31 g/ha + mesotrione 1 g ai/ha
[36] = SOLNI, 63 g/ha + mesotrione 1 g ai/ha
[37] = SOLNI, 125 g/ha + mesotrione 1 g ai/ha
[38] = SOLNI, 250 g/ha + mesotrione 1 g ai/ha
[39] = SOLNI, 500 g/ha + mesotrione 1 g ai/ha

## CC(C)C(=O)Oc1c(-c2c(F)ccc(Br)c2Cl)c(=O)n(CC(F)F)c2nccnc12 [Compound 2.30]
[1]; 17 DAT
  blch (% bleaching at the meristem relative to control plants): 0% (14×) and 15% (3×) and 20% and 65% and 10% (2×) and 90% and 75%
  ht (% height reduction relative to control plants): 15% (2×) and 10% (2×) and 55% (3×) and 25% and 30% (2×) and 0% (2×) and 5% and 8% and 20% (3×) and 40% (2×) and 50% and 35% and 90% and 85%
[1]; 26 DAT
  blch (% bleaching at the meristem relative to control plants): 0% (19×) and 25% and 85% (2×) and 90% (2×)
  ht (% height reduction relative to control plants): 30% (5×) and 20% (6×) and 70% and 10% and 80% and 35% (2×) and 90% (2×) and 50% and 25% and 75% (2×) and 95% and 60%
[2]; 150 gai/ha
  % damage at 7 DAT: 65% and 40% (2×) and 50% and 55% and 60% (2×) and 90%
[2]; 300 gai/ha
  % damage at 7 DAT: 60% (2×) and 80% and 95% and 98% and 70% and 90% (2×)
[2]; 450 gai/ha
  % damage at 7 DAT: 35% (2×) and 20% and 55% (2×) and 60% and 65% and 70%
[3]; [4]
  colby: 0%
  % Damage at 14 DAA, 1 g ai ha^−1 mesotrione: 0%
[3]; ALOMY, 16 g/ha
  % Damage at 14 DAA, no-mesotrione: 0%
[3]; [5]
  colby: 0%
  % Damage at 14 DAA, 1 g ai ha^−1 mesotrione: 0%
[3]; ALOMY, 31 g/ha
  % Damage at 14 DAA, no-mesotrione: 0%
[3]; [6]
  colby: 0%
  % Damage at 14 DAA, 1 g ai ha^−1 mesotrione: 0%
[3]; ALOMY, 63 g/ha
  % Damage at 14 DAA, no-mesotrione: 0%
[3]; [7]
  colby: 0%
  % Damage at 14 DAA, 1 g ai ha^−1 mesotrione: 0%
[3]; ALOMY, 125 g/ha
  % Damage at 14 DAA, no-mesotrione: 0%
[3]; [8]
  colby: −2%
  % Damage at 14 DAA, 1 g ai ha^−1 mesotrione: 0%
[3]; ALOMY, 250 g/ha
  % Damage at 14 DAA, no-mesotrione: 2%
[3]; [9]
  colby: 10%
  % Damage at 14 DAA, 1 g ai ha^−1 mesotrione: 20%
[3]; ALOMY, 500 g/ha
  % Damage at 14 DAA, no-mesotrione: 10%
[3]; [10]
  colby: −2%
  % Damage at 14 DAA, 1 g ai ha^−1 mesotrione: 0%
[3]; AMARE, 16 g/ha
  % Damage at 14 DAA, no-mesotrione: 0%
[3]; [11]
  colby: −2%
  % Damage at 14 DAA, 1 g ai ha^−1 mesotrione: 0%
[3]; AMARE, 31 g/ha
  % Damage at 14 DAA, no-mesotrione: 0%
[3]; [12]
  colby: 8%
  % Damage at 14 DAA, 1 g ai ha^−1 mesotrione: 10%
[3]; AMARE, 63 g/ha
  % Damage at 14 DAA, no-mesotrione: 0%
[3]; [13]
  colby: 29%
  % Damage at 14 DAA, 1 g ai ha^−1 mesotrione: 40%
[3]; AMARE, 125 g/ha
  % Damage at 14 DAA, no-mesotrione: 10%
[3]; [14]
  colby: 9%
  % Damage at 14 DAA, 1 g ai ha^−1 mesotrione: 47%
[3]; AMARE, 250 g/ha
  % Damage at 14 DAA, no-mesotrione: 37%
[3]; [15]
  colby: 16%
  % Damage at 14 DAA, 1 g ai ha^−1 mesotrione: 90%
[3]; AMARE, 500 g/ha
  % Damage at 14 DAA, no-mesotrione: 73%
[3]; [16]
  colby: 0%
  % Damage at 14 DAA, 1 g ai ha^−1 mesotrione: 0%
[3]; ECHCG, 16 g/ha
  % Damage at 14 DAA, no-mesotrione: 0%
[3]; [17]
  colby: 0%
  % Damage at 14 DAA, 1 g ai ha^−1 mesotrione: 0%
[3]; ECHCG, 31 g/ha
  % Damage at 14 DAA, no-mesotrione: 0%
[3]; [18]
  colby: 0%
  % Damage at 14 DAA, 1 g ai ha^−1 mesotrione: 0%
[3]; ECHCG, 63 g/ha
  % Damage at 14 DAA, no-mesotrione: 0%
[3]; [19]
  colby: −2%
  % Damage at 14 DAA, 1 g ai ha^−1 mesotrione: 0%
[3]; ECHCG, 125 g/ha
  % Damage at 14 DAA, no-mesotrione: 2%
[3]; [20]
  colby: 0%
  % Damage at 14 DAA, 1 g ai ha^−1 mesotrione: 5%
[3]; ECHCG, 250 g/ha
  % Damage at 14 DAA, no-mesotrione: 5%
[3]; [21]
  colby: 8%
  % Damage at 14 DAA, 1 g ai ha^−1 mesotrione: 27%
[3]; ECHCG, 500 g/ha
  % Damage at 14 DAA, no-mesotrione: 18%
[3]; [22]
  colby: 0%
  % Damage at 14 DAA, 1 g ai ha^−1 mesotrione: 0%
[3]; IPOHE, 16 g/ha
  % Damage at 14 DAA, no-mesotrione: 0%
[3]; [23]
  colby: 0%
  % Damage at 14 DAA, 1 g ai ha^−1 mesotrione: 0%
[3]; IPOHE, 31 g/ha
  % Damage at 14 DAA, no-mesotrione: 0%
[3]; [24]
  colby: 0%
  % Damage at 14 DAA, 1 g ai ha^−1 mesotrione: 0%
[3]; IPOHE, 63 g/ha
  % Damage at 14 DAA, no-mesotrione: 0%
[3]; [25]
  colby: 0%
  % Damage at 14 DAA, 1 g ai ha^−1 mesotrione: 0%
[3]; IPOHE, 125 g/ha
  % Damage at 14 DAA, no-mesotrione: 0%
[3]; [26]
  colby: −2%
  % Damage at 14 DAA, 1 g ai ha^−1 mesotrione: 0%
[3]; IPOHE, 250 g/ha
  % Damage at 14 DAA, no-mesotrione: 2%
[3]; [27]
  colby: 13%
  % Damage at 14 DAA, 1 g ai ha^−1 mesotrione: 17%
[3]; IPOHE, 500 g/ha
  % Damage at 14 DAA, no-mesotrione: 3%
[3]; [28]
  colby: 0%
  % Damage at 14 DAA, 1 g ai ha^−1 mesotrione: 0%
[3]; SETFA, 16 g/ha
  % Damage at 14 DAA, no-mesotrione: 0%
[3]; [29]
  colby: 0%
  % Damage at 14 DAA, 1 g ai ha^−1 mesotrione: 0%
[3]; SETFA, 31 g/ha
  % Damage at 14 DAA, no-mesotrione: 0%
[3]; [30]
  colby: 0%
  % Damage at 14 DAA, 1 g ai ha^−1 mesotrione: 0%
[3]; SETFA, 63 g/ha
  % Damage at 14 DAA, no-mesotrione: 0%
[3]; [31]
  colby: −2%
  % Damage at 14 DAA, 1 g ai ha^−1 mesotrione: 0%
[3]; SETFA, 125 g/ha
  % Damage at 14 DAA, no-mesotrione: 2%
[3]; [32]
  colby: 3%
  % Damage at 14 DAA, 1 g ai ha^−1 mesotrione: 7%
[3]; SETFA, 250 g/ha
  % Damage at 14 DAA, no-mesotrione: 3%
[3]; [33]
  colby: 10%
  % Damage at 14 DAA, 1 g ai ha^−1 mesotrione: 32%
[3]; SETFA, 500 g/ha
  % Damage at 14 DAA, no-mesotrione: 22%
[3]; [34]
  colby: −17%
  % Damage at 14 DAA, 1 g ai ha^−1 mesotrione: 0%
[3]; SOLNI, 16 g/ha
  % Damage at 14 DAA, no-mesotrione: 0%
[3]; [35]
  colby: −10%
  % Damage at 14 DAA, 1 g ai ha^−1 mesotrione: 7%
[3]; SOLNI, 31 g/ha
  % Damage at 14 DAA, no-mesotrione: 0%
[3]; [36]
  colby: −13%
  % Damage at 14 DAA, 1 g ai ha^−1 mesotrione: 3%
[3]; SOLNI, 63 g/ha
  % Damage at 14 DAA, no-mesotrione: 0%
[3]; [37]
  colby: −11%
  % Damage at 14 DAA, 1 g ai ha^−1 mesotrione: 8%
[3]; SOLNI, 125 g/ha
  % Damage at 14 DAA, no-mesotrione: 2%
[3]; [38]
  colby: 11%
  % Damage at 14 DAA, 1 g ai ha^−1 mesotrione: 30%
[3]; SOLNI, 250 g/ha
  % Damage at 14 DAA, no-mesotrione: 3%
[3]; [39]
  colby: 21%
  % Damage at 14 DAA, 1 g ai ha^−1 mesotrione: 75%
[3]; SOLNI, 500 g/ha
  % Damage at 14 DAA, no-mesotrione: 45%
